Measurements taken from publication PMC10985536, “Aqueous solution and solid-state behaviour of L-homophenylalanine: experiment, modelling, and DFT calculations” (RSC Advances, 2024).
“And” between values parts separate entries of the source, which are not always exact repeats. Equal entries are not always repeated. Where two headings read alike, the source gives them in different places.

Assays:
[1] = set-up: method as in PMID 17874082; conditions: cited from earlier work
[2] = Aqueous solubility of L-Hpa as a function of temperature and pH (isothermal equilibration, HPLC); type: physicochemical; conditions: for Solubility in water: pure water (at pI)
Method: HPLC analysis was performed via a Dionex UltiMate3000 system manufactured by Thermo Scientific, Waltham. Two different HPLC methods were employed to quantify the L-Hpa concentration. The first method relies on a 150 mm long Crownpak (CR+) column (Daicel Corporation, Osaka) with a diameter of 4 mm and a particle size of 5 μm. Measurement took place at 298 K with an eluent flow rate of 0.8 mL min^−1 and an injection volume of 1 μL. Detection was achieved by light absorbance at 200 nm. Aqueous solution of perchloric acid with a pH of 2 was used as eluent. This method was developed in our lab but a similar one was employed in the literature.[14] The second method is based on another work,[31] where a Chirobiotic T column (Astec) with a length of 250 mm, a diameter of 4.6 mm and a particle size of 5 μm was utilized. 0.5 mL per L acetic acid was added to 0.01 mol per L ammonium acetate solution, which was then mixed with methanol in the volumetric ratio of 30/70 to produce the eluent. Measurements were done with an eluent flow rate of 0.5 mL min^−1 by adding 10 μL of sample and detection of light absorbance at 210 nm. Calibration was obtained by dissolving known amounts of L-Hpa in eluent and correlating the measured light absorbance to the concentration by linear regression.
pH measurements were performed with an MP225 pH meter with an InLab Micro Pro probe manufactured by Mettler Toledo, USA. The system is calibrated in regular intervals and each day the accuracy was checked by measuring pH standards at room temperature. At 298 K the pH values were stable and used for the evaluation, while for 328 K either the stable value or the value after 60 s was accepted to reduce the influence of cooling (and potential nucleation).
Equilibrium experiments at isothermal conditions were performed in tempered double jacketed glass reactors at different temperatures. First, L-Hpa, was mixed with water and dissolved completely by heating the suspension. The samples of about 10 mL were then brought to the target temperature at which they were allowed to equilibrate for at least 48 h while being stirred continuously. […] For selected samples at both saturation temperatures (298 K and 328 K), a solid–liquid separation was conducted by vacuum filtration and the obtained solids were analysed by HPLC and PXRD.
Most experiments for determination of pH-dependent solubilities were performed in the Crystalline multi reactor system, manufactured by Technobis Crystallization Systems, The Netherlands. […] Shortly before complete dissolution was detected visually, the buffer addition was stopped. […] On the next day, stirring was stopped, liquid samples were withdrawn and the pH was recorded. […]

[3] = heating 2 K min^-1, helium
Method: TG was performed with a Sensys Evo twin type instrument manufactured by Setaram Instrumentation, France. Grinded samples of about 4 to 7 mg L-Hpa were weighed into open 100 μL aluminium crucibles and analysed with a linear temperature program under a helium (5.0) atmosphere. For the measurement, the following heating program was employed: starting at 298 K heating to 673 K with 2 K min^−1 and subsequent cooling to 298 K with 5 K min^−1. […] Temperature calibration of the instrument is performed regularly using the melting temperatures of highly pure indium, tin, zinc and lead at different heating rates.

Row | Solubility in water ([2]; 298 K) [mol%] | Solubility in water ([2]; 328 K) | Highest solubility observed ([2]; pH 1.07, 328 K, perchloric acid buffer) [mol%] | Solubility increase at sufficiently low or high pH ([2]; pH 1.5 or 10.5) | TG mass loss ([3]; at about 520 K) | TG mass loss ([3]; up to about 560 K) [wt%] | Compound | pKa(2) (NH3), experimental [1] | pKa(1) (COOH), experimental [1]
1 |  |  |  |  |  |  | N[C@@H](Cc1ccccc1)C(=O)O [Phenylalanine] | 9.17 ± 0.06 | 
2 |  |  |  |  |  |  | N[C@@H](Cc1c[nH]cn1)C(=O)O [histidine] | 9.14 ± 0.08 | 1.64 ± 0.45
3 | 0.0075 | 0.0153 mol% and 0.015 mol% | 0.278 | increase almost twentyfold | ca. 10 wt% | 95 | N[C@@H](CCc1ccccc1)C(=O)O [L-Hpa, L-homophenylalanine] |  | 
